Experimental data: US12344610B2, “APOL1 inhibitors and methods of use” (Maze Therapeutics, Inc., priority 2022, dated 2025)
Where two headings read alike, the source gives them in different places.

How the values were obtained:
Format in all cases: cell-based
Details in all cases: geometric mean of at least 2 assay runs, † = single assay run
[1] = system: Trypanosoma brucei Lister 427 VSG221 with APOL1 G2 recombinant protein; test: APOL1 G2 trypanosome cell rescue assay (Example B5)
Method in brief: (§1)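 Compounds in duplicate 2-fold, 11-point series with 0.4% DMSO final. Next, tag-free mature APOL1 variant protein went in from a 2 μg/mL solution, then trypanosomes to 250 per well. Plates incubated 20 h humidified at 37° C, equilibrated to room temperature, and CellTiter-Glo added for luminescence.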

[2] = system: Trypanosoma brucei Lister 427 VSG221 with APOL1 G0 recombinant protein; test: APOL1 G0 trypanosome cell rescue assay (Example B5)
Method in brief: as §1

[3] = system: Trypanosoma brucei Lister 427 VSG221 with APOL1 G1 recombinant protein; test: APOL1 G1 trypanosome cell rescue assay (Example B5)
Method in brief: as §1

[4] = system: HEK293 cells overexpressing APOL1 G2; test: APOL1 G2 HEK293 cell rescue assay (reversal of cell death caused by overexpression of APOL1)
Method in brief: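 EC50 is the half-maximal effective concentration for reversing cell death driven by APOL1 G2 overexpression in HEK293 cells. Reported as geometric mean of at least 2 runs on separate days, each run averaging duplicate wells per plate; some values from a single run.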

[5] = Trypanosoma brucei, 20 h, read-out: APOL1 G2 Trypanosome Rescue EC50, Trypanosoma brucei Lister 427 VSG221 with APOL1 G2 recombinant protein, 20 hours, CellTiter-Glo
[6] = Trypanosoma brucei, 20 h, read-out: APOL1 G0 Trypanosome Rescue EC50, Trypanosoma brucei Lister 427 VSG221 with APOL1 G0 recombinant protein, 20 hours, CellTiter-Glo
[7] = Trypanosoma brucei, 20 h, read-out: APOL1 G1 Trypanosome Rescue EC50, Trypanosoma brucei Lister 427 VSG221 with APOL1 G1 recombinant protein, 20 hours, CellTiter-Glo
[8] = Homo sapiens, HEK293, HEK293 overexpressing APOL1 G2
[9] = read-out: APOL1 G2 Trypanosome Rescue EC50, Trypanosoma brucei Lister 427 VSG221 with APOL1 G2 recombinant protein, 20 hours, CellTiter-Glo
[10] = read-out: APOL1 G0 Trypanosome Rescue EC50, Trypanosoma brucei Lister 427 VSG221 with APOL1 G0 recombinant protein, 20 hours, CellTiter-Glo
[11] = read-out: APOL1 G1 Trypanosome Rescue EC50, Trypanosoma brucei Lister 427 VSG221 with APOL1 G1 recombinant protein, 20 hours, CellTiter-Glo

Structure (SMILES)	EC50 [1, 5] [nM]	EC50 [2, 6] [nM]	EC50 [3, 7] [nM]	EC50 [4, 8] [nM]	EC50 [1, 9] [nM]	EC50 [2, 10] [nM]	EC50 [3, 11] [nM]	EC50 ([4]; HEK293 overexpressing APOL1 G2) [nM]
CC(c1ncc(OCCN2CCC3(CC2)C(=O)Nc2ccc(Cl)cc23)cn1)S(C)(=O)=O (single isomer, unassigned) [Compound 2, 5-chloro-1′-[2-({2-[(1S) or (1R)-1-methanesulfonylethyl]pyrimidin-5-yl}oxy)ethyl]-1,2-dihydrospiro[indole-3,4′-piperidin]-2-one]	56.3	192	191	134				
CC(c1ncc(OCCN2CCC3(CC2)C(=O)Nc2ccc(Cl)cc23)cn1)S(C)(=O)=O (single isomer, unassigned) [Compound 3, 5-chloro-1′-[2-({2-[(1R) or (1S)-1-methanesulfonylethyl]pyrimidin-5-yl}oxy)ethyl]-1,2-dihydrospiro[indole-3,4′-piperidin]-2-one]					92	248	323	142
CC(O)c1ncc(OCCN2CCC3(CC2)C(=O)Nc2ccc(C#N)cc23)cc1C(F)(F)F (single isomer, unassigned) [Compound 376, 1′-[2-({6-[(1S) or (1R)-1-hydroxyethyl]-5-(trifluoromethyl)pyridin-3-yl}oxy)ethyl]-2-oxo-1,2-dihydrospiro[indole-3,4′-piperidine]-5-carbonitrile]				46.9	39.9	95.6	115	
CC(O)c1ncc(OCCN2CCC3(CC2)C(=O)Nc2ccc(C#N)cc23)cc1C(F)(F)F (single isomer, unassigned) [Compound 377, 1′-[2-({6-(1S) or (1R)-1-hydroxyethyl]-5-(trifluoromethyl)pyridin-3-yl}oxy)ethyl]-2-oxo-1,2-dihydrospiro[indole-3,4′-piperidine]-5-carbonitrile]					97.8	205	271	85.9
CS(=O)(=O)C1(c2ncc(OCCN3CCC4(CC3)C(=O)Nc3ccc(C(F)F)cc34)cn2)CC1 [Compound 5, 5-(difluoromethyl)-1′-(2-{[2-(1-methanesulfonylcyclopropyl)pyrimidin-5-yl]oxy}ethyl)-1,2-dihydrospiro[indole-3,4′-piperidin]-2-one]	52	150	171	213				
CS(=O)(=O)C1(c2ncc(OCCN3CCC4(CC3)C(=O)Nc3ccc(OC(F)F)cc34)cn2)CC1 [Compound 6, 5-(difluoromethoxy)-1′-(2-{[2-(1-methanesulfonylcyclopropyl)pyrimidin-5-yl]oxy}ethyl)-1,2-dihydrospiro[indole-3,4′-piperidin]-2-one]	137	381	470	121				
O=C1CCc2cc(OCCN3CCC4(CC3)C(=O)Nc3ccc(Cl)cc34)ccc2N1 [Compound 82, 5-chloro-1′-{2-[(2-oxo-1,2,3,4-tetrahydroquinolin-6-yl)oxy]ethyl}-1,2-dihydrospiro[indole-3,4′-piperidin]-2-one]	113	254	344	72.2				
CS(=O)(=O)C1(c2c(F)cc(OCCN3CCC4(CC3)C(=O)Nc3ccc(C#N)cc34)cc2F)COC1 [Compound 84, 1′-{2-[3,5-difluoro-4-(3-methanesulfonyloxetan-3-yl)phenoxy]ethyl}-2-oxo-1,2-dihydrospiro[indole-3,4′-piperidine]-5-carbonitrile]	50	101	144	64.9				
O=C1Nc2ccc(Cl)cc2C12CCN(CCOc1ccc3c(cnn3[C@H]3C[C@@H](O)C3)c1)CC2 [Compound 85, 5-chloro-1′-[2-({1-[(cis)-3-hydroxycyclobutyl]-1H-indazol-5-yl}oxy)ethyl]-1,2-dihydrospiro[indole-3,4′-piperidin]-2-one]	48.5	115	190	70.3				
O=C1Nc2ccc(Cl)cc2C12CCN(CCOc1ccc3c(cnn3[C@H]3C[C@H](O)C3)c1)CC2 [Compound 86, 5-chloro-1′-[2-({1-[(trans)-3-hydroxycyclobutyl]-1H-indazol-5-yl}oxy)ethyl]-1,2-dihydrospiro[indole-3,4′-piperidin]-2-one]	38.4	96.4	137	46.5				
O=C1Nc2ccc(Cl)cc2C12CCN(CCOc1ccc3[nH]ncc3c1)CC2 [Compound 87, 5-chloro-1′-[2-(2H-indazol-5-yloxy)ethyl]-1,2-dihydrospiro[indole-3,4′-piperidin]-2-one]	95.8	268	383	103				
Cn1c(=O)[nH]c2cc(OCCN3CCC4(CC3)C(=O)Nc3ccc(Cl)cc34)ccc21 [Compound 88, 5-chloro-1′-{2-[(1-methyl-2-oxo-2,3-dihydro-1H-1,3-benzodiazol-5-yl)oxy]ethyl}-1,2-dihydrospiro[indole-3,4′-piperidin]-2-one]	138	451	561	121				
CS(=O)(=O)c1c(F)cc(OCCN2CCC3(CC2)C(=O)Nc2ccc(Cl)cc23)cc1F [Compound 89, 5-chloro-1′-[2-(3,5-difluoro-4-methanesulfonylphenoxy)ethyl]-1,2-dihydrospiro[indole-3,4′-piperidin]-2-one]	32.7	101	114	55.7				
CS(=O)(=O)c1c(F)cc(OCCN2CCC3(CC2)C(=O)Nc2ccc(C#N)cc23)cc1F [Compound 90, 1′-[2-(3,5-difluoro-4-methanesulfonylphenoxy)ethyl]-2-oxo-1,2-dihydrospiro[indole-3,4′-piperidine]-5-carbonitrile]	163	546	679	151				
COC(=O)C1(S(=O)(=O)c2ccc(OCCN3CCC4(CC3)C(=O)Nc3ccc(Cl)cc34)cc2)CC1 [Compound 91, methyl 1-[4-(2-{5-chloro-2-oxo-1,2-dihydrospiro[indole-3,4′-piperidin]-1′-yl}ethoxy)benzenesulfonyl]cyclopropane-1-carboxylate]	20.4	54.6	82.7	24.5				
CC1(S(=O)(=O)c2ccc(OCCN3CCC4(CC3)C(=O)Nc3ccc(Cl)cc34)cc2)COC1 [Compound 92, 5-chloro-1′-(2-{4-[(3-methyloxetan-3-yl)sulfonyl]phenoxy}ethyl)-1,2-dihydrospiro[indole-3,4′-piperidin]-2-one]	28.5	84.4	99.3	51.5				
CC1(S(=O)(=O)c2ccc(OCCN3CCC4(CC3)C(=O)Nc3ccc(C#N)cc34)cc2)COC1 [Compound 93, 1′-(2-{4-[(3-methyloxetan-3-yl)sulfonyl]phenoxy}ethyl)-2-oxo-1,2-dihydrospiro[indole-3,4′-piperidine]-5-carbonitrile]	56.9	156	264	90.9				
CS(=O)(=O)N1CCc2cc(OCCN3CCC4(CC3)C(=O)Nc3ccc(Cl)cc34)ccc2C1 [Compound 94, 5-chloro-1′-{2-[(2-methanesulfonyl-1,2,3,4-tetrahydroisoquinolin-6-yl)oxy]ethyl}-1,2-dihydrospiro[indole-3,4′-piperidin]-2-one]	129	403	424	140				
CN1C(=O)CCc2cc(OCCN3CCC4(CC3)C(=O)Nc3ccc(C#N)cc34)ccc21 [Compound 95, 1′-{2-[(1-methyl-2-oxo-1,2,3,4-tetrahydroquinolin-6-yl)oxy]ethyl}-2-oxo-1,2-dihydrospiro[indole-3,4′-piperidine]-5-carbonitrile]	222	592	703	246				
CC(C)N1C(=O)CCc2cc(OCCN3CCC4(CC3)C(=O)Nc3ccc(C#N)cc34)ccc21 [Compound 96, 2-oxo-1′-(2-{[2-oxo-1-(propan-2-yl)-1,2,3,4-tetrahydroquinolin-6-yl]oxy}ethyl)-1,2-dihydrospiro[indole-3,4′-piperidine]-5-carbonitrile]	53	122	143	50.5				
